The values below come from ChEMBL document CHEMBL5393453, “Compositions and methods of using the same for treatment of neurodegenerative and mitochondrial disease” (2021).

Molecules are shown by their SMILES.

This series is described as follows: Cytotoxicity against human HeLa cells expressing YFP parkin assessed as highest safety dose by DAPI staining analysis. It is filed as toxicity, cell-based. The settings on record: read-out: Activity.
In the case of `C[C@@H]1CN([C@@H]2COc3cc(F)ccc3[C@H]2Nc2ncnc3[nH]c(C(F)(F)F)cc23)CCO1`, the MNTC was 25 µM.

In the case of `Fc1ccc2c(c1)OC[C@H](N1C[C@H]3COC[C@H]3C1)[C@H]2Nc1ncnc2[nH]c(C(F)(F)F)cc12` (single isomer, unassigned), the MNTC turned out to be 25 µM.

With `CO[C@@H]1CCN([C@@H]2COc3ccccc3[C@H]2Nc2ncnc3[nH]c(C(F)(F)F)cc23)C1`, the MNTC was 25 µM.

As for `c1ccc2c(c1)CC[C@@H](N1C[C@H]3COC[C@@H]3C1)[C@@H]2Nc1ncnc2[nH]c(C3CC3)cc12`, the MNTC turned out to be 25 µM.

On to `Fc1cccc2c1CC[C@@H](N1C[C@H]3COC[C@H]3C1)[C@@H]2Nc1ncnc2[nH]c(C3CC3)cc12` (single isomer, unassigned), for which the MNTC was 25 µM.

With `Fc1cccc2c1CC[C@@H](N1C[C@H]3COC[C@H]3C1)[C@@H]2Nc1ncnc2[nH]c(C(F)(F)F)cc12` (single isomer, unassigned), the MNTC was 25 µM.

For `C[S@](=N)(=O)C1CN([C@H]2COc3ccccc3[C@@H]2Nc2ncnc3[nH]c(C(F)(F)F)cc23)C1` (single isomer, unassigned), the MNTC turned out to be 25 µM.

Take `Fc1cccc2c1CC[C@H](N1C[C@H]3COC[C@H]3C1)[C@H]2Nc1ncnc2[nH]c(C(F)(F)F)cc12` (single isomer, unassigned): the MNTC stood at 25 µM.

For the molecule `CN1CCN([C@H]2CCc3ccccc3[C@@H]2Nc2ncnc3[nH]c(C(F)(F)F)cc23)CC1` (single isomer, unassigned), the MNTC worked out at 25 µM.

Turning to `C[C@@H]1CN([C@@H]2CCc3ccccc3[C@H]2Nc2ncnc3[nH]c(C4CC4)cc23)C[C@H](C)O1` (single isomer, unassigned), the MNTC came to 25 µM.

Turning to `FC(F)(F)c1cc2c(N[C@H]3c4ccccc4OC[C@H]3N3CCOCC3)ncnc2[nH]1`, the MNTC turned out to be 25 µM.

With `FC(F)(F)c1cc2c(N[C@H]3c4ccccc4OC[C@@H]3N3CCOCC3)ncnc2[nH]1` (single isomer, unassigned), the MNTC is 25 µM.

`OC[C@H]1CN([C@H]2COc3ccccc3[C@@H]2Nc2ncnc3[nH]c(C(F)(F)F)cc23)CCO1` (single isomer, unassigned): the MNTC came out at 25 µM.

For the molecule `CO[C@H]1CCN([C@@H]2COc3ccccc3[C@H]2Nc2ncnc3[nH]c(C4CC4)cc23)C1`, the MNTC worked out at 25 µM.

Take `[2H]C([2H])([2H])OC1CN([C@@H]2COc3ccccc3[C@H]2Nc2ncnc3[nH]c(C(F)(F)F)cc23)C1`: the MNTC was found to be 25 µM.

As for `C[C@H]1CN([C@H]2COc3cc(F)ccc3[C@@H]2Nc2ncnc3[nH]c(C(F)(F)F)cc23)CCO1`, the MNTC was found to be 25 µM.

Regarding `C[C@@H]1CN([C@@H]2COc3cc(F)ccc3[C@H]2Nc2ncnc3[nH]c(C4CC4)cc23)CCO1`, the MNTC came out at 25 µM.

As to `C[C@H]1CN([C@@H]2CCc3ccccc3[C@H]2Nc2ncnc3[nH]c(C(F)(F)F)cc23)CCO1` (single isomer, unassigned), the MNTC was determined as 25 µM.

For `Fc1ccc2c(c1)OC[C@@H](N1CCOCC1)[C@@H]2Nc1ncnc2[nH]c(C3CC3)cc12` (single isomer, unassigned), the MNTC worked out at 25 µM.

Turning to `c1ccc2c(c1)CC[C@H](C1CCOCC1)[C@@H]2Nc1ncnc2[nH]c(C3CC3)cc12`, the MNTC is 25 µM.

Consider `FC(F)OC1CN([C@H]2COc3ccccc3[C@@H]2Nc2ncnc3[nH]c(C(F)(F)F)cc23)C1`, for which the MNTC was 25 µM.

Turning to `c1ccc2c(c1)CC[C@@H](N1C[C@H]3COC[C@H]3C1)[C@@H]2Nc1ncnc2[nH]c(C3CC3)cc12` (single isomer, unassigned), the MNTC is 25 µM.

On to `FC(F)(F)c1cc2c(N[C@@H]3c4ccccc4CC[C@H]3C3CCOCC3)ncnc2[nH]1` (single isomer, unassigned), for which the MNTC worked out at 25 µM.

On to `CO[C@@H]1CCN([C@H]2COc3ccccc3[C@@H]2Nc2ncnc3[nH]c(C4CC4)cc23)C1`, for which the MNTC was 25 µM.

With `C[C@H]1CN([C@H]2COc3ccccc3[C@@H]2Nc2ncnc3[nH]c(C(F)(F)F)cc23)CCO1`, the MNTC is 25 µM.

Regarding `Fc1ccc2c(c1)CC[C@H](N1C[C@H]3COC[C@H]3C1)[C@H]2Nc1ncnc2[nH]c(C(F)(F)F)cc12` (single isomer, unassigned), the MNTC is 25 µM.

On to `C[C@@H]1CN([C@H]2CCc3ccccc3[C@@H]2Nc2ncnc3[nH]c(C(F)(F)F)cc23)C[C@H](C)O1` (single isomer, unassigned), for which the MNTC stood at 25 µM.

With `FC(F)(F)c1cc2c(N[C@H]3c4ccccc4OC[C@@H]3C3CCCOC3)ncnc2[nH]1` (single isomer, unassigned), the MNTC came to 25 µM.

With `C[C@@H]1CN([C@H]2CCc3ccccc3[C@@H]2Nc2ncnc3[nH]c(C4CC4)cc23)C[C@H](C)O1` (single isomer, unassigned), the MNTC is 25 µM.

As for `CS(=N)(=O)C1CN(C2COc3ccccc3C2Nc2ncnc3[nH]c(C(F)(F)F)cc23)C1` (centres undefined), the MNTC was 25 µM.

Take `c1ccc2c(c1)OC[C@H](N1C[C@H]3COC[C@H]3C1)[C@H]2Nc1ncnc2[nH]c(C3CC3)cc12` (single isomer, unassigned): the MNTC is 25 µM.

For the molecule `Fc1ccc2c(c1)OC[C@H](N1C[C@H]3COC[C@H]3C1)[C@H]2Nc1ncnc2[nH]c(C3CC3)cc12` (single isomer, unassigned), the MNTC stood at 25 µM.

As for `C[C@H]1CN([C@@H]2CCc3ccccc3[C@H]2Nc2ncnc3[nH]c(C4CC4)cc23)CCO1` (single isomer, unassigned), the MNTC stood at 25 µM.

With `Fc1ccc2c(c1)OC[C@H](N1C[C@@H]3COC[C@H]3C1)[C@H]2Nc1ncnc2[nH]c(C(F)(F)F)cc12` (single isomer, unassigned), the MNTC is 25 µM.

As for `Fc1cccc2c1CC[C@H](N1C[C@H]3COC[C@H]3C1)[C@H]2Nc1ncnc2[nH]c(C3CC3)cc12` (single isomer, unassigned), the MNTC came out at 25 µM.

`FC(F)(F)c1cc2c(N[C@H]3c4ccccc4CC[C@H]3C3CCOCC3)ncnc2[nH]1`: the MNTC came to 25 µM.

Regarding `COC[C@@H]1CCCN1[C@H]1COc2ccccc2[C@@H]1Nc1ncnc2[nH]c(C(F)(F)F)cc12` (single isomer, unassigned), the MNTC is 25 µM.

Regarding `c1ccc2c(c1)OC[C@@H](C1CCOCC1)[C@H]2Nc1ncnc2[nH]c(C3CC3)cc12`, the MNTC came out at 25 µM.

With `C[C@@H]1CN([C@@H]2CCc3ccccc3[C@H]2Nc2ncnc3[nH]c(C4CC4)cc23)CCO1` (single isomer, unassigned), the MNTC amounted to 25 µM.

Regarding `C[C@@H]1CN([C@H]2COc3ccccc3[C@@H]2Nc2ncnc3[nH]c(C(F)(F)F)cc23)CCO1`, the MNTC is 25 µM.

Regarding `CN1CCN([C@@H]2CCc3ccccc3[C@H]2Nc2ncnc3[nH]c(C(F)(F)F)cc23)CC1` (single isomer, unassigned), the MNTC was 25 µM.

Take `CO[C@H]1CCN([C@@H]2COc3ccccc3[C@H]2Nc2ncnc3[nH]c(C(F)(F)F)cc23)C1`: the MNTC came out at 25 µM.

As to `C[C@@H]1CN([C@@H]2CCc3ccccc3[C@H]2Nc2ncnc3[nH]c(C(F)(F)F)cc23)CCO1` (single isomer, unassigned), the MNTC was found to be 25 µM.

On to `c1ccc2c(c1)CC[C@@H](C1CCOCC1)[C@@H]2Nc1ncnc2[nH]c(C3CC3)cc12`, for which the MNTC stood at 25 µM.

On to `Fc1ccc2c(c1)CC[C@@H](N1CCOCC1)[C@@H]2Nc1ncnc2[nH]c(C3CC3)cc12`, for which the MNTC worked out at 25 µM.

As to `c1ccc2c(c1)OC[C@@H](N1CCOCC1)[C@H]2Nc1ncnc2[nH]c(C3CC3)cc12`, the MNTC stood at 25 µM.

On to `c1ccc2c(c1)OC[C@@H](N1C[C@H]3COC[C@H]3C1)[C@@H]2Nc1ncnc2[nH]c(C3CC3)cc12` (single isomer, unassigned), for which the MNTC was 25 µM.

With `c1ccc2c(c1)OC[C@H](C1CCOCC1)[C@@H]2Nc1ncnc2[nH]c(C3CC3)cc12`, the MNTC was determined as 25 µM.

Turning to `FC(F)(F)c1cc2c(N[C@H]3c4ccccc4OC[C@H]3C3CCOCC3)ncnc2[nH]1`, the MNTC worked out at 8.3 µM.

In the case of `Fc1ccc2c(c1)CC[C@@H](N1C[C@@H]3COC[C@H]3C1)[C@@H]2Nc1ncnc2[nH]c(C(F)(F)F)cc12`, the MNTC was 25 µM.

For the molecule `FC(F)(F)c1cc2c(N[C@@H]3c4ccccc4CC[C@@H]3C3CCOCC3)ncnc2[nH]1`, the MNTC turned out to be 25 µM.

In the case of `C[C@@H]1CN([C@@H]2CCc3ccccc3[C@H]2Nc2ncnc3[nH]c(C(F)(F)F)cc23)C[C@H](C)O1` (single isomer, unassigned), the MNTC was 25 µM.

For `FC(F)(F)c1cc2c(N[C@H]3c4ccccc4CC[C@@H]3C3CCOCC3)ncnc2[nH]1` (single isomer, unassigned), the MNTC amounted to 25 µM.

Turning to `Fc1ccc2c(c1)OC[C@H](N1CCOCC1)[C@H]2Nc1ncnc2[nH]c(C3CC3)cc12`, the MNTC was 25 µM.

`C[C@@H]1CN([C@H]2COc3cc(F)ccc3[C@@H]2Nc2ncnc3[nH]c(C(F)(F)F)cc23)CCO1`: the MNTC is 25 µM.

`c1ccc2c(c1)CC[C@@H](C1CCOCC1)[C@H]2Nc1ncnc2[nH]c(C3CC3)cc12`: the MNTC came out at 25 µM.

Consider `c1ccc2c(c1)OCC(N1CC3CCOC3C1)C2Nc1ncnc2[nH]c(C3CC3)cc12` (single isomer, unassigned), for which the MNTC stood at 25 µM.

As to `OC(C1CCOCC1)C1COc2ccccc2C1Nc1ncnc2[nH]c(C(F)(F)F)cc12` (single isomer, unassigned), the MNTC came to 25 µM.

As to `C[C@@H]1CN([C@H]2COc3ccccc3[C@@H]2Nc2ncnc3[nH]c(C4CC4)cc23)CCO1`, the MNTC was 25 µM.

As for `COC[C@H]1CCCN1[C@H]1COc2ccccc2[C@@H]1Nc1ncnc2[nH]c(C(F)(F)F)cc12` (single isomer, unassigned), the MNTC was 25 µM.

As for `FC(F)(F)c1cc2c(N[C@@H]3c4ccccc4OC[C@H]3N3CCOCC3)ncnc2[nH]1`, the MNTC is 25 µM.

For `Fc1ccc2c(c1)OC[C@H](N1C[C@H]3COC[C@@H]3C1)[C@H]2Nc1ncnc2[nH]c(C(F)(F)F)cc12` (single isomer, unassigned), the MNTC amounted to 25 µM.

As to `FC(F)(F)c1cc2c(N[C@@H]3c4ccccc4OC[C@H]3C3CCCOC3)ncnc2[nH]1` (some centres undefined), the MNTC worked out at 25 µM.

With `C[C@H]1CN([C@@H]2COc3ccccc3[C@H]2Nc2ncnc3[nH]c(C4CC4)cc23)CCO1`, the MNTC amounted to 25 µM.
